Measured values taken from ChEMBL document CHEMBL3352377, “Discovery of selective and orally bioavailable protein kinase Cθ (PKCθ) inhibitors from a fragment hit” (J Med Chem, 2015).

Assays:
[1] = target: T1, Protein kinase C theta type (Homo sapiens, UniProt Q04759)
Description: Inhibition of human recombinant PKCtheta expressed in Sf21 cells using Bio-cdc peptide substrate and ATP after 60 mins by time-resolved fluorescence in-vitro kinase assay

cells = settings: Homo sapiens, T-Blast, 24 h
Description: Inhibition of anti-CD3/anti-CD28 antibody-induced IL2 production in human T-Blast cells after 24 hrs

[2] = Unbound intrinsic clearance in human microsomes; format: ADME, Microsome
[3] = Permeability from apical to basolateral side in MDCK2-MDR1 cells at pH 7.4; format: ADME, cell-based, Canis lupus familiaris, MDCK-II; settings: dog, MDCK-MDR1, pH 7.4; read-out: permeability
[4] = Unbound intrinsic clearance in rat microsomes; format: ADME, Microsome
[5] = target: Protein kinase C alpha type (Homo sapiens, UniProt P17252)
[6] = Unbound intrinsic clearance in mouse microsomes; format: ADME, Microsome
[7] = Plasma clearance in rat at 1 mg/kg, iv or 3 mg/kg, po; format: ADME, organism-based
[8] = Half life in rat at 1 mg/kg, iv or 3 mg/kg, po; format: ADME, organism-based; settings: in vivo
[9] = AUC in rat at 1 mg/kg, iv or 3 mg/kg, po; format: ADME, organism-based; settings: plasma
[10] = target: Protein kinase C gamma type (Homo sapiens, UniProt P05129); experiment: Inhibition of human recombinant PKCgamma expressed in Sf21 cells using Bio-cdc peptide substrate and ATP after 60 mins by time-resolved fluorescence in-vitro kinase assay
[11] = target: Protein kinase C delta type (Homo sapiens, UniProt Q05655); experiment: Inhibition of human recombinant PKCdelta expressed in Sf21 cells using Bio-cdc peptide substrate and ATP after 60 mins by time-resolved fluorescence in-vitro kinase assay
[12] = Oral bioavailability in rat at 3 mg/kg; format: ADME, organism-based; settings: in vivo
[13] = target: T2, Protein kinase C zeta type (Homo sapiens, UniProt Q05513); experiment: Inhibition of human recombinant PKCzeta expressed in Sf21 cells using Bio-cdc peptide substrate and ATP after 60 mins by time-resolved fluorescence in-vitro kinase assay
T2 sequence (Q05513 whole entry): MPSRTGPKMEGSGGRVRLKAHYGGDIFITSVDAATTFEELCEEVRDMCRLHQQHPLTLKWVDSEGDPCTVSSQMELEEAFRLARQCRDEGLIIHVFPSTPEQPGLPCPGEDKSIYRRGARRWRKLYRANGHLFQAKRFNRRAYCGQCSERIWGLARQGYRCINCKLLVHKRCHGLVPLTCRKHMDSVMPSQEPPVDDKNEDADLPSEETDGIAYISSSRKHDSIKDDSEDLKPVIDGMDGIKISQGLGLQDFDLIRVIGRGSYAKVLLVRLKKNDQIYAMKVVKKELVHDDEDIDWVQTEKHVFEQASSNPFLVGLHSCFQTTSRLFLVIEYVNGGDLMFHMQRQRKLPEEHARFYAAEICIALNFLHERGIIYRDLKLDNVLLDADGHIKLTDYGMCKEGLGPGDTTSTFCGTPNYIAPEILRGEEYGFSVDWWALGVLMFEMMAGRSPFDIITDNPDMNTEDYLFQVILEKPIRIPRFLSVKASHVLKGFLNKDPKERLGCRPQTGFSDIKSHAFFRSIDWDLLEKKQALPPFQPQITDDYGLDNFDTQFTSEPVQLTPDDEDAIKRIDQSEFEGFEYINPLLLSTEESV

[14] = Inhibition of human recombinant […] expressed in Sf21 cells using Bio-cdc peptide substrate and ATP after 60 mins by time-resolved fluorescence in-vitro kinase assay
[15] = Cmax in rat at 1 mg/kg, iv or 3 mg/kg, po; format: ADME, organism-based; settings: in vivo
[16] = target: T3, Protein kinase C epsilon type (Homo sapiens, UniProt Q02156); experiment: Inhibition of human recombinant PKCepsilon expressed in Sf21 cells using Bio-cdc peptide substrate and ATP after 60 mins by time-resolved fluorescence in-vitro kinase assay
T3 sequence (Q02156 whole entry): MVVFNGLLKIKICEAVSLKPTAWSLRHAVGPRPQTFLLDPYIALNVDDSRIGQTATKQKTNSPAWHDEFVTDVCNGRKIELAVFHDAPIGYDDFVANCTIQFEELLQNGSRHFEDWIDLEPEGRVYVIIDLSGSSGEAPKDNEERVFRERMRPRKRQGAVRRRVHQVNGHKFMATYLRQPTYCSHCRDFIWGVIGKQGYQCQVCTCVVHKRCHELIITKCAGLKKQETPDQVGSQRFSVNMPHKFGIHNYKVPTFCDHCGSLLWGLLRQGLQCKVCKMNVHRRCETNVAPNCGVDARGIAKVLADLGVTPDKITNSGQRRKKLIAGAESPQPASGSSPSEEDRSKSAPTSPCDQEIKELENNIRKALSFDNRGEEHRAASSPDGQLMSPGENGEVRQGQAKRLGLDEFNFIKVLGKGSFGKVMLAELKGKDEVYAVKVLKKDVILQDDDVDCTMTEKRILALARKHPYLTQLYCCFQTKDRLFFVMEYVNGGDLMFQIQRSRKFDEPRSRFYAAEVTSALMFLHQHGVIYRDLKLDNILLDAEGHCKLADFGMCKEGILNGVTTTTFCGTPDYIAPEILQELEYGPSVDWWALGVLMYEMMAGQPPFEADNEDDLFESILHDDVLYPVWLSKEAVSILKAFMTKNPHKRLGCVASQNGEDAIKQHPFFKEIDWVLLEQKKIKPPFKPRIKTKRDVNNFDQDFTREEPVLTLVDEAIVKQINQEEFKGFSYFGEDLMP

[17] = target: Protein kinase C beta type (Homo sapiens, UniProt P05771); experiment: Inhibition of human recombinant PKCbeta expressed in Sf21 cells using Bio-cdc peptide substrate and ATP after 60 mins by time-resolved fluorescence in-vitro kinase assay
[18] = target: T1, Protein kinase C theta type; experiment: Inhibition of human recombinant PKCtheta by TR-FRET assay
Focal adhesion kinase 1 = Focal adhesion kinase 1 (Homo sapiens, UniProt Q05397); experiment: Inhibition of FAK (unknown origin) by TR-FRET assay
Rattus norvegicus [19] = experiment: Increase in left ventricular dP/dt50 in rat cardiovascular model at plasma concentration of 5.8 uM dosed over 30 mins infusions; settings: in vivo, iv, 0.5 h
Rattus norvegicus [20] = experiment: Increase in left ventricular dP/dt50 in rat cardiovascular model at plasma concentration of 1.3 uM dosed over 30 mins infusions; settings: in vivo, iv, 0.5 h
Rattus norvegicus [21] = experiment: Increase in left ventricular dP/dt50 in rat cardiovascular model at plasma concentration of 9.7 uM dosed over 30 mins infusions; settings: in vivo, iv, 0.5 h

T1 sequence (Q04759 whole entry): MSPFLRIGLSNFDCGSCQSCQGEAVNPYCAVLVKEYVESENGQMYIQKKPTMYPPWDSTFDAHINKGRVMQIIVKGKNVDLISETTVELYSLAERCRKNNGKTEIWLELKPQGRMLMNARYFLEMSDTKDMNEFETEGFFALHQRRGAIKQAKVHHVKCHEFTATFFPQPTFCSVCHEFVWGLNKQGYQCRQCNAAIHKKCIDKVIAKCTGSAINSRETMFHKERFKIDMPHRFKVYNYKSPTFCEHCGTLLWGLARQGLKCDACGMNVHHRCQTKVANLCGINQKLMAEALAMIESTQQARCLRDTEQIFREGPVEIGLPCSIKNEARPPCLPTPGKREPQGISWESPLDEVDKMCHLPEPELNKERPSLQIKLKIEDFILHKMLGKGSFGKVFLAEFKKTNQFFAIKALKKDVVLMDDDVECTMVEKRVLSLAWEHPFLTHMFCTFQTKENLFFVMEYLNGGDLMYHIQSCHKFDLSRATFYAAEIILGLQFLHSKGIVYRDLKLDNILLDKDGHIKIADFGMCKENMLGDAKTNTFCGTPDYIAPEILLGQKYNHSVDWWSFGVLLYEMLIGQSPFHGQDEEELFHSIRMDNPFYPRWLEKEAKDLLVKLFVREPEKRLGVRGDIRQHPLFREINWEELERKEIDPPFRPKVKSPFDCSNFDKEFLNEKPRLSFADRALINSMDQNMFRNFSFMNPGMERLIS
Sequence of Protein kinase C delta type (Q05655 whole entry): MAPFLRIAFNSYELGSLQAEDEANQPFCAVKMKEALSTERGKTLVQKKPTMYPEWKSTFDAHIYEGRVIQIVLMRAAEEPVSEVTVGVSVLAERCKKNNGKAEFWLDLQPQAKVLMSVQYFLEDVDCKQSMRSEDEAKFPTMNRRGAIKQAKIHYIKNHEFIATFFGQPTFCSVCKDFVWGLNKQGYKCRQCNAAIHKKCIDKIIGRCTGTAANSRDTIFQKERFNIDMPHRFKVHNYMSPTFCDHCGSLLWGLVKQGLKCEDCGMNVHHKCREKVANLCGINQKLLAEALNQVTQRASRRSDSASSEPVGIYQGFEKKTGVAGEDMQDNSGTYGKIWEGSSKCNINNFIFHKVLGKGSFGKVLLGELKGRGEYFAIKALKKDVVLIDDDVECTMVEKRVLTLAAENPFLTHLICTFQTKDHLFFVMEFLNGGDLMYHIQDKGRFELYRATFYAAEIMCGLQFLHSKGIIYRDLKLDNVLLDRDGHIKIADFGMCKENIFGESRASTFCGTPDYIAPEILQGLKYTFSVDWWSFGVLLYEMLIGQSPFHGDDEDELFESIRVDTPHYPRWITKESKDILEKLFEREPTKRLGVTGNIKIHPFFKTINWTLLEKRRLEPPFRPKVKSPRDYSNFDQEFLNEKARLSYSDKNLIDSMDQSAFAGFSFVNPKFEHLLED
Sequence of Protein kinase C beta type (P05771 whole entry): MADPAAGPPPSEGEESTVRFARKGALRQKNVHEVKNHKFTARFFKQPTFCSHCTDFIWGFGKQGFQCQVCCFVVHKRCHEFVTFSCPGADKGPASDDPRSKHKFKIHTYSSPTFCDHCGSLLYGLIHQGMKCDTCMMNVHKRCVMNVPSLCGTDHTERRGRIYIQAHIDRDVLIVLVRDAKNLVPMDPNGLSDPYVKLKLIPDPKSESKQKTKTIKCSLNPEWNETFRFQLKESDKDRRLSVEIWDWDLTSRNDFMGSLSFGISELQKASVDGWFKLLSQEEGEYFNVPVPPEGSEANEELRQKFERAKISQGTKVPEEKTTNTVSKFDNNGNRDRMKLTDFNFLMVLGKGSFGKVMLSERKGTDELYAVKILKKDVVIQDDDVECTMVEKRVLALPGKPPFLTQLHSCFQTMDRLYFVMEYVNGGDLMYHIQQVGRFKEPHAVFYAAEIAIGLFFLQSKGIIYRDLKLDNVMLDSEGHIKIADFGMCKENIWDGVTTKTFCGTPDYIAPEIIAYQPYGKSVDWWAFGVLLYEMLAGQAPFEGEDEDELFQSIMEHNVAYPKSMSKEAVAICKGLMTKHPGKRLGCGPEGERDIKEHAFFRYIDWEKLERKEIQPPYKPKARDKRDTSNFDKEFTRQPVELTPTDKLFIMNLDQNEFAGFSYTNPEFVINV
Sequence of Focal adhesion kinase 1 (Q05397 whole entry, the tested form may be a part): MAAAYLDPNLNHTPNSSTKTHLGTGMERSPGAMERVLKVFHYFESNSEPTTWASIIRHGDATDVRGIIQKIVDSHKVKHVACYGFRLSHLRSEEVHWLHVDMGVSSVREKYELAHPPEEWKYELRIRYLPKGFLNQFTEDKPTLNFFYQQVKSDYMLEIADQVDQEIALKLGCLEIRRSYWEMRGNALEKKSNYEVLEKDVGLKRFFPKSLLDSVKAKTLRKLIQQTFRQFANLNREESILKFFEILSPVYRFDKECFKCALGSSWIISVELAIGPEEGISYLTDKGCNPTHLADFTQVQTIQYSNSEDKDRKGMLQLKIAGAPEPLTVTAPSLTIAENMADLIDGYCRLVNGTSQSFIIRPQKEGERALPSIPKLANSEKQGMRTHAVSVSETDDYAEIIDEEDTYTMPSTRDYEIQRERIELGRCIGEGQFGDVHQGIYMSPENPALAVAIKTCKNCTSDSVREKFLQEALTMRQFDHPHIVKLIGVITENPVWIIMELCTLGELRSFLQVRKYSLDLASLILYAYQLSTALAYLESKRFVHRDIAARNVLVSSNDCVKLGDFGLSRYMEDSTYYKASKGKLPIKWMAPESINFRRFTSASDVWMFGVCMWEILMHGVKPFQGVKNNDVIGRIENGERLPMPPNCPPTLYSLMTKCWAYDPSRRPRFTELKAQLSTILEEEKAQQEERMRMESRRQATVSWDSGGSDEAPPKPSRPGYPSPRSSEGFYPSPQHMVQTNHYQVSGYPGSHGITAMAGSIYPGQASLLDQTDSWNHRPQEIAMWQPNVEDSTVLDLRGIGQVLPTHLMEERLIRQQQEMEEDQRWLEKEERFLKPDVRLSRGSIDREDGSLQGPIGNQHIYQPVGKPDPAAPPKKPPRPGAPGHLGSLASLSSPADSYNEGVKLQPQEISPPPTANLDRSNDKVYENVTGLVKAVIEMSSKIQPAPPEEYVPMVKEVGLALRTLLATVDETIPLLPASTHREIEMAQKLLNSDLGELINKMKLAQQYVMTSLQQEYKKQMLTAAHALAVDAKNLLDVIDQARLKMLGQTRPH

IC50 [1] [µM]	IC50 (cells) [µM]	CL free [2] [mL/min/kg]	Papp A→B [3] [×10⁻⁶ cm/s]	IC50 [5] [µM]	Structure (SMILES)	also measured
19	–	–	–	–	O=C1CN2C(=NN1)COc1ccc(NC(=O)C3CNC3)cc12	–
> 50	–	–	–	–	O=C1CN2C(=NN1)COc1ccc(NC(=O)CC3CCNCC3)cc12	–
3.5	–	–	–	–	O=C1CN2C(=NN1)COc1ccc(NC(=O)C3CCNCC3)cc12	–
46	–	–	–	–	CN(C)CC(=O)Nc1ccc2c(c1)N1CC(=O)NN=C1CO2	–
> 50	–	–	–	–	O=C1CN2C(=NN1)COc1ccc(NC3COC3)cc12	–
46	–	–	–	–	O=C1CN2C(=NN1)COc1ccc(NC(=O)C3CCNC3)cc12 (stereo unspecified)	–
0.23	2.7	33	0.42	9.4	CC1C(=O)NN=C2COc3ccc(NC4CNC4)cc3N21 (stereo unspecified)	CL free [4]: 48.3 mL/min/kg
18	–	–	–	–	CC(N)CNc1ccc2c(c1)N1CC(=O)NN=C1CO2 (stereo unspecified)	–
38	–	–	–	–	O=C1CN2C(=NN1)COc1ccc(NC3CCC3)cc12	–
–	0.23	56.7	0.85	2.2	CC1C(=O)NN=C2COc3cc(C(F)(F)F)c(NC4CNC4)cc3N21 (stereo unspecified)	CL free [4]: < 67 mL/min/kg
0.19	0.91	51.7	–	3	CC1C(=O)NN=C2COc3cc(C(F)(F)F)c(OC4CNC4)cc3N21 (stereo unspecified)	CL free [4]: < 73.3 mL/min/kg
0.1	0.31	< 26.7	0.86	6.9	CC1C(=O)NN=C2COc3cc(F)c(NC4CNC4)cc3N21 (stereo unspecified)	CL free [4]: 50 mL/min/kg
21	–	–	–	–	O=C1CN2C(=NN1)COc1ccc(NC3CCNCC3)cc12	–
–	1	85	0.25	2.9	C[C@H]1C(=O)NN=C2COc3cc(C(F)(F)F)c(NC4CNC4)cc3N21	CL free [6]: < 120 mL/min/kg; CL free [4]: 118 mL/min/kg
0.055	0.27	40	0.35	5.1	Cc1cc2c(cc1NC1CNC1)N1C(=NNC(=O)[C@H]1C)CO2	clearance [7]: 81.7 mL/min/kg; half-life [8]: 3 h; AUC [9]: 60 ng·h/mL; IC50 [10]: 23 µM; IC50 [11]: 0.75 µM; bioavailability [12]: 9.2%; Cmax [15]: 8.7 ng/mL; IC50 [17]: 0.52 µM
0.059	0.39	< 46.7	0.5	1.6	CC1C(=O)NN=C2COc3cc(C(F)(F)F)c(CC4CNC4)cc3N21 (stereo unspecified)	CL free [4]: 81.7 mL/min/kg

The remaining lines, values behind:

Structure (SMILES)	IC50 [1] [µM]	IC50 (cells) [µM]	CL free [2] [mL/min/kg]	Papp A→B [3] [×10⁻⁶ cm/s]	IC50 [5] [µM]	also measured
CC(C)c1cc2c(cc1NC1CNC1)N1C(=NNC(=O)C1C)CO2 (stereo unspecified)	0.13	0.34	< 33	0.28	2.2	CL free [4]: 88.3 mL/min/kg
O=C1CN2C(=NN1)COc1ccc(NCC3CCNC3)cc12 (stereo unspecified)	20	–	–	–	–	–
CN1CCC(C(=O)Nc2ccc3c(c2)N2CC(=O)NN=C2CO3)CC1	4.5	–	–	–	–	–
Cc1cc2c(cc1NC1CNC1)N1C(=NNC(=O)[C@@H]1C)CO2	0.39	4.2	–	0.16	3	CL free [6]: < 73.3 mL/min/kg
O=C1CN2C(=NN1)COc1ccc(NC3CCCNC3)cc12 (stereo unspecified)	14	–	–	–	–	–
O=C1NN=C2COc3ccc(NC4CNC4)cc3N2C1C1CC1 (stereo unspecified)	3.5	–	–	–	> 50	–
CCC1C(=O)NN=C2COc3ccc(NC4CNC4)cc3N21 (stereo unspecified)	1	–	–	–	5.4	–
O=C1CN2C(=NN1)COc1ccc(NCC3CNC3)cc12	17	–	–	–	–	–
O=C1CN2C(=NN1)COc1ccc(NCC3CCNCC3)cc12	31	–	–	–	–	–
O=C1CN2C(=NN1)COc1ccc(NC3CCNC3)cc12 (stereo unspecified)	3.3	–	–	–	–	–
O=C1CN2C(=NN1)COc1ccc(NC3CNC3)cc12	1.3	–	–	–	7.1	–
Cc1cc2c(cc1NC1CNC1)N1C(=NNC(=O)C1C)CO2 (stereo unspecified)	0.11	0.43	< 33	0.31	4.1	CL free [4]: 61.7 mL/min/kg
C[C@@H]1C(=O)NN=C2COc3cc(-c4ccccc4)c(NC4CNC4)cc3N21	0.049	0.12	90	0.27	1.8	clearance [7]: 81.7 mL/min/kg; half-life [8]: 5.9 h; AUC [9]: 43 ng·h/mL; IC50 [10]: 13 µM; IC50 [11]: 0.33 µM; bioavailability [12]: 5.4%; CL free [6]: 467 mL/min/kg; IC50 [13]: 8.5 µM; IC50 [14]: 0.86 µM; Cmax [15]: 5.3 ng/mL; CL free [4]: 200 mL/min/kg; IC50 [16]: 0.46 µM; IC50 [17]: 0.087 µM
O=C1CN2C(=NN1)COc1ccccc12	453	–	–	–	> 50	IC50 [18]: 19 µM; IC50 (Focal adhesion kinase 1): 156 µM
O=C1NN=C2COc3ccc(NC4CNC4)cc3N2C1c1ccccc1 (stereo unspecified)	> 50	–	–	–	> 50	–
O=C1CN2C(=NN1)COc1ccc(NC3CCCNCC3)cc12 (stereo unspecified)	8.9	–	–	–	–	–
C[C@H]1C(=O)NN=C2COc3cc(-c4ccccc4)c(NC4CNC4)cc3N21	0.76	2.4	110	0.23	6.6	CL free [6]: 417 mL/min/kg; CL free [4]: < 103 mL/min/kg
CN(C)Cc1ccc2c(c1)OCC1=NNC(=O)CN12	16	–	–	–	–	–
CN1CCN(c2nc(C3=C(c4c[nH]c5ccccc45)C(=O)NC3=O)c3ccccc3n2)CC1 [SOTRASTAURIN]	–	–	–	–	–	Activity (Rattus norvegicus [19]): 35%; Activity (Rattus norvegicus [20]): 14%; Activity (Rattus norvegicus [21]): 76%
